Assay results taken from article PMC12483202, “Pharmacokinetic profile of oral firocoxib in the koala (Phascolarctos cinereus)” (PLOS One, 2025).

Experiment: Single oral dose (5 mg/kg) pharmacokinetics of firocoxib in koalas, plasma HPLC, non-compartmental analysis;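 further: healthy adult koalas, three per sex, anaesthetised the day before dosing for cephalic vein catheterisation, with serial blood draws and firocoxib in plasma quantified by HPLC using fluorescence detection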
Conditions: for Cmax / MRT inf / Tmax / Vd/F / k el / half-life / concentration at 2 h / concentration at 4 h / concentration at 8 h / concentration at 1 h / concentration at 0.25 h / concentration at 0.5 h / concentration at 12 h / concentration at 24 h / AUC(0-inf) / AUC(0-t): plasma, po, 5 mg/kg; for MRT inf: MRT0-inf; for Vd/F: Vz/F; for concentration at 2 h / concentration at 4 h / concentration at 8 h / concentration at 1 h / concentration at 0.25 h / concentration at 0.5 h / concentration at 12 h / concentration at 24 h: Firocoxib plasma concentration; for AUC(0-t): AUC0-t
[1] = female, K4 female, single oral 5 mg/kg
[2] = female, K5 female, single oral 5 mg/kg
[3] = female, arithmetic mean, female koalas (n = 3), single oral 5 mg/kg
[4] = female, harmonic mean, female koalas (n = 3), single oral 5 mg/kg
[5] = female, K6 female, single oral 5 mg/kg
[6] = harmonic mean, female koalas (n = 3), single oral 5 mg/kg
[7] = harmonic mean, male koalas (n = 3), single oral 5 mg/kg
[8] = harmonic mean, n = 6 koalas, single oral 5 mg/kg
[9] = male, koala (Phascolarctos cinereus), K1 male, single oral 5 mg/kg
[10] = male, koala (Phascolarctos cinereus), K2 male, single oral 5 mg/kg
[11] = male, koala (Phascolarctos cinereus), K3 male, single oral 5 mg/kg
[12] = male, koala, K1 male, single oral 5 mg/kg
[13] = male, koala, K2 male, single oral 5 mg/kg
[14] = male, koala, K3 male, single oral 5 mg/kg
[15] = male, K1 male, single oral 5 mg/kg
[16] = male, K2 male, single oral 5 mg/kg
[17] = male, K3 male, single oral 5 mg/kg
[18] = male, arithmetic mean, male koalas (n = 3), single oral 5 mg/kg
[19] = male, harmonic mean, male koalas (n = 3), single oral 5 mg/kg
[20] = median (range), n = 6 koalas, single oral 5 mg/kg

Text: Six mature koalas (3 males, 3 females) with median (range) body weights and ages of 9.2 kg, (7.5 to 9.7 kg) and 4.8 years (4.3 to 9.1 years), respectively, were recruited from the Taronga Zoo colony (Mosman, NSW, Australia). These koalas were clinically normal based on regular physical examinations, haematological and biochemical analyte values. During the study, koalas were housed singly and supplied with various Eucalyptus spp. foliage and water ad-libitum. […] No animals were sacrificed; the animals were returned to the colony immediately after firocoxib administration and blood sampling. In order to minimise stress, intravenous catheterisation for sequential blood sampling was performed under general anaesthesia.
The day prior to drug administration and blood collection, the koalas were anaesthetised with alfaxalone (Alfaxan, Jurox, Pty Ltd, Rutherford, NSW, Australia) at 3 mg/kg administered intramuscularly (i.m.) and maintained under anaesthesia on isoflurane in 100% oxygen via a face mask for placement of a 20 gauge, 1 ¼ inch intravenous catheter into the cephalic vein. A short T-connector extension set (Codan, Santa Ana, CA, USA) and cap was attached to the catheter and flushed with saline. The extension tube, cap and catheter were secured with tape and bandage, for serial blood collection. Blood (5 mL) was collected at the time of anaesthesia in a lithium heparin tube to establish a baseline (t = 0 h).
Firocoxib was administered as a single oral dose of 5 mg/kg as crushed tablets made into a paste with Vetafarm Koala Crittacare (Wagga Wagga, NSW) and water.
Samples were centrifuged at 1500 x g for 10 minutes, within 1 h of collection; the plasma was immediately stored at –80 °C and protected from light until drug quantification. […] Clinical observations for the presence of adverse effects in the animals treated included measurement of vital signs, appetite, body weight, faecal consistency and overall behaviour and mobility.
Quantification of firocoxib and visualisation of metabolites in plasma was achieved by HPLC with fluorescence detection modified from a published method [12]. The HPLC system consisted of a Shimadzu LC-20AT solvent delivery unit, DGU-20A degasser, a SIL-20A HT auto injector, an SPD-20A UV detector and RF-10A XL fluorescence detector (Shimadzu, Rydalmere, NSW, Australia) and column oven (CTO-20A). […] Chromatographic separation was performed with a Supelco, Discovery C18, (25 cm x 4.6 mm, 5 µm) column (Merck KGaA, Darmstadt, Germany) with a 1-mm Opti-guard C18 pre-column (Choice Analytical, Thornleigh, NSW, Australia) at ambient temperature. […] Fluorescence detection excitation and emission wavelengths were 280 nm and 375 nm, respectively.
For sample preparation 200 μL of each of the following: plasma samples collected from koalas administered firocoxib, standards prepared for the standard curves and the QC samples; were extracted twice by mixing with 800 μL of ethyl acetate. The extracted organic portion (1.6 mL) was dried under vacuum in a Speed Vac Concentrator (Thermo Scientific, MA, USA) at 35 °C for 1 h, reconstituted with 100 μL of acetonitrile, and finally 10 μL of the reconstituted sample was injected into the HPLC system.
The concentration of each QC sample was repeated three times with the accuracy and precision calculated on each of the triplicates. The mean accuracy ± standard deviation (SD) were calculated using the formula [13]:
Firocoxib plasma concentrations from the initial oral administration underwent non-compartmental analysis. The peak concentration (Cmax) and the time reached (Tmax) were obtained directly from the measured concentrations. The elimination half-life (t1/2) was determined by ln2/ke where ke is the elimination rate constant which is the inverse slope of the elimination or terminal part of the semi-log curve.

- Cmax (female, median value, female koalas, PO 5 mg/kg): 61.9 ng/mL
- MRT inf [1]: 8.74 h
- MRT inf [2]: 13.1 h
- MRT inf [3]: 16.1 h
- MRT inf [4]: 13.1 h
- Tmax [1]: 4 h
- Tmax [2]: 2 h
- Tmax [5]: 4 h
- Tmax [3]: 3.33 h
- Tmax [4]: 3 h
- Vd/F [1]: 202 L
- Vd/F [2]: 616 L
- Vd/F [5]: 2130 L
- Vd/F [3]: 982 L
- Vd/F [4]: 437 L
- k el (female, ke (elimination constant), K4 female, single oral 5 mg/kg, slope from 8, 12, 24 h): 5.28e-05 s⁻¹
- k el (female, ke (elimination constant), K5 female, single oral 5 mg/kg, slope from 8, 12, 24 h): 1.94e-05 s⁻¹
- k el (female, ke (elimination constant), K6 female, single oral 5 mg/kg, slope from 8,12,24 h): 2.78e-05 s⁻¹
- k el (female, ke, arithmetic mean, female koalas (n = 3), single oral 5 mg/kg): 3.33e-05 s⁻¹
- k el (female, ke, harmonic mean, female koalas (n = 3), single oral 5 mg/kg): 2.78e-05 s⁻¹
- half-life (female, t1/2 (elimination half-life), K4 female, single oral 5 mg/kg): 3.67 h
- half-life (female, t1/2 (elimination half-life), K5 female, single oral 5 mg/kg): 9.91 h
- half-life (female, t1/2 (elimination half-life), K6 female, single oral 5 mg/kg): 7.24 h
- half-life (female, t1/2, arithmetic mean, female koalas (n = 3), single oral 5 mg/kg): 6.94 h
- half-life (female, t1/2, harmonic mean, female koalas (n = 3), single oral 5 mg/kg): 5.87 h
- half-life (female, t1/2, median value, female koalas, PO 5 mg/kg): 7.24 h
- AUC 0-t/AUC0-inf [6]: 0.91
- AUMC 0-inf [6]: 10875.3 ng/mL*h^2
- Cl/F [6]: 52.0 L/h
- ka [6]: 0.25 h⁻¹
- AUC 0-t/AUC0-inf [7]: 0.88
- AUMC 0-inf [7]: 16711.5 ng/mL*h^2
- Cl/F [7]: 23.8 L/h
- ka [7]: 0.16 h⁻¹
- AUMC [8]: 13176.1 ng/mL*h ^ 2
- Cl/F [8]: 32.6 L/h
- ka [8]: 0.20 h⁻¹
- concentration at 2 h [9]: 22.7 ng/mL
- concentration at 4 h [9]: 68.3 ng/mL
- concentration at 8 h [9]: 191 ng/mL
- concentration at 2 h [10]: 39.2 ng/mL
- concentration at 4 h [10]: 210 ng/mL
- concentration at 8 h [10]: 118 ng/mL
- concentration at 1 h [11]: 41.9 ng/mL
- concentration at 2 h [11]: 105 ng/mL
- concentration at 4 h [11]: 263 ng/mL
- concentration at 8 h [11]: 128 ng/mL
- concentration at 0.25 h [12]: 7.94 ng/mL
- concentration at 0.5 h [12]: 4.51 ng/mL
- concentration at 1 h [12]: 8.34 ng/mL
- concentration at 12 h [12]: 101 ng/mL
- concentration at 24 h [12]: 57.2 ng/mL
- concentration at 0.25 h [13]: 4.37 ng/mL
- concentration at 0.5 h [13]: 10 ng/mL
- concentration at 1 h [13]: 21.7 ng/mL
- concentration at 12 h [13]: 39.7 ng/mL
- concentration at 24 h [13]: 4.13 ng/mL
- concentration at 0.25 h [14]: 16.6 ng/mL
- concentration at 0.5 h [14]: 52.5 ng/mL
- concentration at 12 h [14]: 49.6 ng/mL
- concentration at 24 h [14]: 3.86 ng/mL
- AUC(0-inf) (male, AUC0-inf, K1 male, single oral 5 mg/kg): 3000 ng·h/mL
- AUC(0-inf) (male, AUC0-inf, K2 male, single oral 5 mg/kg): 1540 ng·h/mL
- AUC(0-inf) (male, AUC0-inf, K3 male, single oral 5 mg/kg): 1950 ng·h/mL
- AUC(0-inf) (male, AUC 0-inf, arithmetic mean, male koalas (n = 3), single oral 5 mg/kg): 2160 ng·h/mL
- AUC(0-inf) (male, AUC 0-inf, harmonic mean, male koalas (n = 3), single oral 5 mg/kg): 2010 ng·h/mL
- AUC(0-t) [15]: 2160 ng·h/mL
- AUC(0-t) [16]: 1520 ng·h/mL
- AUC(0-t) [17]: 1930 ng·h/mL
- AUC(0-t) [18]: 1870 ng·h/mL
- AUC(0-t) [19]: 1830 ng·h/mL
- Cmax [15]: 191 ng/mL
- Cmax [16]: 210 ng/mL
- Cmax [17]: 263 ng/mL
- Cmax [18]: 221 ng/mL
- Cmax [19]: 217 ng/mL
- Cmax (male, median value, male koalas, PO 5 mg/kg): 210 ng/mL
- MRT inf [15]: 19 h
- MRT inf [16]: 7.13 h
- MRT inf [17]: 6.88 h
- MRT inf [18]: 11.1 h
- MRT inf [19]: 9.01 h
- Tmax [15]: 8 h
- Tmax [16]: 4 h
- Tmax [17]: 4 h
- Tmax [18]: 5.33 h
- Tmax [19]: 4.8 h
- Vd/F [15]: 277 L
- Vd/F [16]: 152 L
- Vd/F [17]: 113 L
- Vd/F [18]: 181 L
- Vd/F [19]: 158 L
- k el (male, ke (elimination constant), K1 male, single oral 5 mg/kg, slope from 12, 24 h): 1.39e-05 s⁻¹
- k el (male, ke (elimination constant), K2 male, single oral 5 mg/kg, slope from 4, 8, 12 h): 5.83e-05 s⁻¹
- k el (male, ke (elimination constant), K3 male, single oral 5 mg/kg, slope from 4, 8, 12 h): 6.11e-05 s⁻¹
- k el (male, ke, arithmetic mean, male koalas (n = 3), single oral 5 mg/kg): 4.44e-05 s⁻¹
- k el (male, ke, harmonic mean, male koalas (n = 3), single oral 5 mg/kg): 2.78e-05 s⁻¹
- half-life (male, t1/2 (elimination half-life), K1 male, single oral 5 mg/kg): 14.7 h
- half-life (male, t1/2 (elimination half-life), K2 male, single oral 5 mg/kg): 3.31 h
- half-life (male, t1/2 (elimination half-life), K3 male, single oral 5 mg/kg): 3.19 h
- half-life (male, t1/2, arithmetic mean, male koalas (n = 3), single oral 5 mg/kg): 7.06 h
- half-life (male, t1/2, harmonic mean, male koalas (n = 3), single oral 5 mg/kg): 4.38 h
- half-life (male, t1/2, median value, male koalas, PO 5 mg/kg): 3.31 h
- AUMC [20]: 12429.4 (8500.1–56998.2) ng/mL*h ^ 2
- Cl/F [20]: 34.5 (19.0-87.5) L/h
- ka [20]: 0.23 (0.11-0.43) 1/h
- time after which firocoxib could be detected in the plasma of all koalas (single oral 5 mg/kg): 15 min
SMILES: CC1(C)OC(=O)C(OCC2CC2)=C1c1ccc(S(C)(=O)=O)cc1 [firocoxib]
